ChEMBL document CHEMBL3272098, “Reactions of 2-acyloxyisobutyryl halides with nucleosides. 7. Synthesis and biological evaluation of some 2,2'-anhydro-1(3',5'-di-O-acyl-beta-D-arabinofuranosyl)cytosine hydrochlorides” (J Med Chem, 1976)
Calls of active or inactive are those of the source. No cut-off for these calls is given here.

Tests used:
L1210 [1] = test: Antitumor activity against mouse L1210 cells allografted in BDF1 mouse assessed as increase in life span at 50 mg/kg, ip administered 24 hrs post-implantation measured up to 30 days relative to control; type: functional; conditions: route intraperitoneal
HeLa = test: Cytotoxicity against human HeLa cells after 48 hrs by Coulter counting analysis; type: functional; conditions: read-out: ED50 (the source's name)
Mus musculus [2] = test: Toxicity in BDF1 mouse allografted with mouse L1210 cells assessed as survival at 500 mg/kg, ip administered 24 hrs post-implantation after 30 days; type: organism-based; set-up: dose 500 mg/kg, route intraperitoneal; conditions: in vivo, 720 h
Mus musculus [3] = test: Toxicity in BDF1 mouse allografted with mouse L1210 cells assessed as reduction in average life span at 500 mg/kg, ip administered 24 hrs post-implantation measured up to 30 days relative to control; type: organism-based; set-up: dose 500 mg/kg, route intraperitoneal; scale not given: the % may be the effect or the level left; conditions: in vivo
L1210 [4] = test: Antitumor activity against mouse L1210 cells allografted in po dosed BDF1 mouse administered 24 hrs post-implantation; type: functional, organism-based
Vaccinia virus = test: Antiviral activity against Vaccinia virus IHD infected in African green monkey BGM cells after 6 days by plaque reduction assay; type: functional; conditions: Orthopoxvirus vaccinia, 144 h, read-out: ED50 (the source's name)
Mus musculus [5] = test: Toxicity in BDF1 mouse allografted with mouse L1210 cells assessed as reduction in average life span at 1000 mg/kg, ip administered 24 hrs post-implantation measured up to 30 days relative to control; type: organism-based; set-up: dose 1000 mg/kg, route intraperitoneal; scale not given: the % may be the effect or the level left; conditions: in vivo
[6] = system: unidentified influenza virus; test: Antiviral activity against Influenza virus Ao/WNS infected in monkey LLC-MK2 cells after 5 days by pulp disk diffusion assay; type: functional, organism-based
L1210 [7] = test: Antitumor activity against mouse L1210 cells allografted in BDF1 mouse assessed as increase in life span at 200 mg/kg, ip administered 24 hrs post-implantation measured up to 30 days relative to control; type: functional; conditions: route intraperitoneal
Mus musculus [8] = test: Toxicity in BDF1 mouse allografted with mouse L1210 cells assessed as survival at 1000 mg/kg, ip administered 24 hrs post-implantation after 30 days; type: organism-based; set-up: dose 1000 mg/kg, route intraperitoneal; conditions: in vivo, 720 h
Herpesviridae sp. = test: Antiviral activity against Herpes simplex virus HF infected in African green monkey BGM cells after 6 days by plaque reduction assay; type: functional; conditions: 144 h, read-out: ED50 (the source's name)
BGM = test: Antiviral activity against Poliovirus type 1 Mahoney infected in African green monkey BGM cells after 5 days by pulp disk diffusion assay; type: functional, cell-based; conditions: Human poliovirus 1 Mahoney
L1210 [9] = test: Antitumor activity against mouse L1210 cells allografted in BDF1 mouse assessed as survival at 200 mg/kg, ip administered 24 hrs post-implantation after 30 days; type: functional, organism-based; set-up: dose 200 mg/kg
Measles morbillivirus = test: Antiviral activity against Measles virus infected in African green monkey BGM cells after 5 days by pulp disk diffusion assay; type: functional, organism-based
L1210 [10] = test: Antitumor activity against mouse L1210 cells allografted in BDF1 mouse assessed as survival at 500 mg/kg, ip administered 24 hrs post-implantation after 30 days; type: functional, organism-based; set-up: dose 500 mg/kg
L1210 [11] = test: Antitumor activity against mouse L1210 cells allografted in BDF1 mouse assessed as increase in life span at 500 mg/kg, ip administered 24 hrs post-implantation measured up to 30 days relative to control; type: functional; conditions: route intraperitoneal
L1210 [12] = test: Antitumor activity against mouse L1210 cells allografted in BDF1 mouse assessed as survival at 50 mg/kg, ip administered 24 hrs post-implantation after 30 days; type: functional, organism-based; set-up: dose 50 mg/kg
Mus musculus [13] = test: Toxicity in BDF1 mouse allografted with mouse L1210 cells assessed as reduction in average life span at 200 mg/kg, ip administered 24 hrs post-implantation measured up to 30 days relative to control; type: organism-based; set-up: dose 200 mg/kg, route intraperitoneal; scale not given: the % may be the effect or the level left; conditions: in vivo
Mus musculus [14] = test: Toxicity in BDF1 mouse allografted with mouse L1210 cells assessed as survival at 200 mg/kg, ip administered 24 hrs post-implantation after 30 days; type: organism-based; set-up: dose 200 mg/kg, route intraperitoneal; conditions: in vivo, 720 h
Mus musculus [15] = test: Toxicity in BDF1 mouse allografted with mouse L1210 cells at 50 mg/kg, ip administered 24 hrs post-implantation measured up to 30 days; type: organism-based; set-up: dose 50 mg/kg, route intraperitoneal; conditions: in vivo
Mus musculus [16] = test: Toxicity in BDF1 mouse allografted with mouse L1210 cells at 50 to 1000 mg/kg, ip administered 24 hrs post-implantation measured up to 30 days; type: organism-based; set-up: dose 50-1000 mg/kg, route intraperitoneal; conditions: in vivo
L1210 [17] = test: Antitumor activity against mouse L1210 cells allografted in BDF1 mouse assessed as increase in life span at 1000 mg/kg, ip administered 24 hrs post-implantation measured up to 30 days relative to control; type: functional; conditions: route intraperitoneal
L1210 [18] = test: Antitumor activity against mouse L1210 cells allografted in BDF1 mouse assessed as survival at 1000 mg/kg, ip administered 24 hrs post-implantation after 30 days; type: functional, organism-based; set-up: dose 1000 mg/kg

Structure (SMILES)	ILS at 50 mg/kg (L1210 [1]) [%]	EC50 (HeLa) [µg/mL]	Activity (Mus musculus [2])	Activity (Mus musculus [3]) [%]	Activity (L1210 [4])	EC50 (Vaccinia virus) [µM]	Activity (Mus musculus [5]) [%]	Activity [6]	ILS at 200 mg/kg (L1210 [7]) [%]	Activity (Mus musculus [8])	EC50 (Herpesviridae sp.) [µM]	Activity (BGM)	Activity (L1210 [9])	Activity (Measles morbillivirus)	Activity (L1210 [10])	ILS at 500 mg/kg (L1210 [11]) [%]	Activity (L1210 [12])	Activity (Mus musculus [13]) [%]	Activity (Mus musculus [14])	other results
CCCCCCCC/C=C\CCCCCCCC(=O)OC[C@H]1O[C@@H]2[C@@H](Oc3nc(=N)ccn32)[C@@H]1OC(=O)CCCCCCC/C=C\CCCCCCCC.Cl	> 141	0.3	Toxic	23	inactive	3.2	31	inactive	> 257	Toxic	8.5	inactive	Active	inactive	–	–	–	–	–	–
CCCC(=O)OC[C@H]1O[C@@H]2[C@@H](Oc3nc(=N)ccn32)[C@@H]1OC(=O)CCC.Cl	–	0.11	–	–	inactive	1.55	100	inactive	58	Toxic	4.9	inactive	inactive	inactive	inactive	85	–	–	–	–
CCCCCCCCCCCC(=O)OC[C@H]1O[C@@H]2[C@@H](Oc3nc(=N)ccn32)[C@@H]1OC(=O)CCCCCCCCCCC.Cl	> 195	0.48	Toxic	23	inactive	0.7	18	inactive	> 310	Toxic	3.45	inactive	Active	inactive	–	–	–	–	–	–
CCCCCC(=O)OC[C@H]1O[C@@H]2[C@@H](Oc3nc(=N)ccn32)[C@@H]1OC(=O)CCCCC.Cl	26	0.11	Toxic	86	inactive	0.27	100	inactive	–	Toxic	1	inactive	–	inactive	–	–	inactive	61	Toxic	–
C=CCCCCCCCCC(=O)OC[C@H]1O[C@@H]2[C@@H](Oc3nc(=N)ccn32)[C@@H]1OC(=O)CCCCCCCCC=C.Cl	24	0.1	–	–	inactive	0.44	–	inactive	–	–	0.78	inactive	–	inactive	–	–	inactive	74	Toxic	Activity (Mus musculus [15]): Non-toxic
CCCCCCCC/C=C\CCCCCCCCCCCC(=O)OC[C@H]1O[C@@H]2[C@@H](Oc3nc(=N)ccn32)[C@@H]1OC(=O)CCCCCCCCCCC/C=C\CCCCCCCC.Cl	> 202	4	–	–	inactive	> 30	–	inactive	> 267	–	> 30	inactive	–	inactive	Active	> 257	–	–	–	Activity (Mus musculus [16]): Non-toxic; ILS at 1000 mg/kg (L1210 [17]): > 257%; Activity (L1210 [18]): Active
C/C=C/C=C/C(=O)OC[C@H]1O[C@@H]2[C@@H](Oc3nc(=N)ccn32)[C@@H]1OC(=O)/C=C/C=C/C.Cl	1	0.1	–	–	inactive	5.8	–	inactive	–	–	> 10	inactive	–	inactive	–	–	inactive	100	Toxic	Activity (Mus musculus [15]): Non-toxic
CCCCCCCCCCCCCC(=O)OC[C@H]1O[C@@H]2[C@@H](Oc3nc(=N)ccn32)[C@@H]1OC(=O)CCCCCCCCCCCCC.Cl	> 129	0.48	Toxic	20	inactive	1.75	18	inactive	> 295	Toxic	6.05	inactive	–	inactive	–	–	–	–	–	–
CCCCCCCC/C=C/CCCCCCCC(=O)OC[C@H]1O[C@@H]2[C@@H](Oc3nc(=N)ccn32)[C@@H]1OC(=O)CCCCCCC/C=C/CCCCCCCC.Cl	114	1.4	–	–	inactive	4.7	–	inactive	> 258	–	9.3	inactive	–	inactive	Active	> 257	inactive	–	–	ILS at 1000 mg/kg (L1210 [17]): 11%; Activity (L1210 [18]): inactive
